# Laboratory results: patent US5741671A, “Isolation cloning and expression of transmembrane water channel aquaporin 1(AQP1)” (The Johns Hopkins University, priority 1995, dated 1998)
# T1: AQP1 (Homo sapiens, UniProt P29972)
# T1 construct: Human erythrocytes were obtained from blood-bank units stored up to 5 weeks; from tissue; host or cells: human erythrocytes (blood-bank units; small-scale preparations from freshly drawn whole blood)
# T1 sequence (P29972 2-269 limits assumed): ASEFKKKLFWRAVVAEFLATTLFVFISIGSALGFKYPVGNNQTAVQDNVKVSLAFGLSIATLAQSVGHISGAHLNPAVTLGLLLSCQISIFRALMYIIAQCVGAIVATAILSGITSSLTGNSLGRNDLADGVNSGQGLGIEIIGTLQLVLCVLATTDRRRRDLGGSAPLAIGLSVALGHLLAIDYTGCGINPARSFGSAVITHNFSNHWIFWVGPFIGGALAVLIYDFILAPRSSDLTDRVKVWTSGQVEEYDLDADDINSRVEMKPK
# T2: CHIP28 water channel (Homo sapiens, UniProt P29972)
# T2 construct: Human erythrocytes were obtained from blood-bank units stored up to 5 weeks; from tissue; host or cells: human erythrocytes (blood-bank units; small-scale preparations from freshly drawn whole blood)
# T2 sequence (P29972 2-269 limits assumed): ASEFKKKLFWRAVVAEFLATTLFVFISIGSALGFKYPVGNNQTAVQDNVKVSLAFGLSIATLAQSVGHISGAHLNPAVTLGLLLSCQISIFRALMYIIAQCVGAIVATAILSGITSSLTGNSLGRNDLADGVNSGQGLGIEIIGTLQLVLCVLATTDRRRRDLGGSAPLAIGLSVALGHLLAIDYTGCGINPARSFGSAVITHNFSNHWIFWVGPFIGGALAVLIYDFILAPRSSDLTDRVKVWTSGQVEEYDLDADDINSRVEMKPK
# Experiments:
# AQP1 = target: T1, AQP1; test: Stopped-flow osmotic water permeability of AQP1 proteoliposomes; format: biochemical; conditions: CHIP28 proteoliposomes
# Source text: Preparation AQP1-containing proteoliposomes. Crude Escherichia coli lipid was obtained from Avanti Polar Lipids, Inc., and neutral lipid was removed by acetone/ether wash (Ambudkar & Maloney, 1986, Methods. Enzymol. 125:558-563). The purified E. coli bulk phospholipid is composed of phosphalidylethanolamine (70%), phosphatidylglycerol (15%), and cardiolipin (15%) (Chen & Wilson, […], Proc. Natl. Acad. Sci. USA 83:2652-2656). E. coli bulk phospholipid was employed since it has previously been used for functional reconstitution of several transport proteins including the glucose transporter of RBCs (Maloney & Ambudkar, 1989, Arch. Biochem. Biophys. 269:1-10; Chen et al., 1986, Proc. Natl. Acad. Sci. USA 83:2652-2656).
# Highly purified AQP1 protein was incorporated into proteoliposomes by detergent dilution; control liposomes were formed in an identical manner without AQP1 protein.
# Purified AQP1 was stored overnight at 0° C. or frozen for several days at -80° C. prior to reconstitution. Reconstitution into proteoliposomes was carried out in a final volume of 1 ml containing 60-90 μg of purified AQP1 protein in chromatography buffer, 9 mg of bath-sonicated E. coli phospholipid, 1.25% (w/v) octyl glucoside, and 50 mM Tris-HCl (pH 7.5). The mixture was briefly blended on a vortex mixer and incubated for 20 minutes on ice. Proteoliposomes (or liposomes prepared without protein) were formed at room temperature by rapidly injecting the mixture into 25 ml of buffer A [50 mM MOPS, pH 7.5, 150 mM N-methyl-D-glucamine (NMDG) chloride also containing 10-15 mM carboxyfluorescein, 1 mM dithiothreitol, and 0.5 mM PMSF]. For the measurement of proton permeability, proteoliposomes and liposomes were loaded with buffer B (5 mM MOPS, pH 7.5, 150 mM KCl, 0.5 mM carboxyfluorescein, 1 mM dithiothreitol, and 0.5 mM PMSF). The suspension was incubated for 20 minutes at room temperature. Proteoliposomes or liposomes were collected by centrifugation for 1 hour at 123000×g in a Beckman Type 42.1 rotor at 4° C. The pellet was resuspended in 8 ml of buffer A or B and then centrifuged for 1 hour at 152000×g in a Beckman Type 50 Ti rotor. Proteoliposomes or liposomes were resuspended in 300 μl of buffer A or B and stored at 4° C. for 16-24 hours. Typically 50% (54±6%, n=5) of the AQP1 protein and 70% of the phospholipid were recovered in proteoliposomes. The lipid to protein ratio was in the range of 120:1 to 219:1. […] Protein and phospholipid were measured as described by Ambudkar & Maloney (J. Biol. Chem., 1986, 261:10079-10086).
# (§1) Permeability measurements. Membrane permeability measurements (Pf) were measured by exposing AQP1 proteoliposomes or control liposomes to an osmotic gradient by rapid mixing with an equal volume of another solution containing buffer A plus sufficient sucrose to increase osmolality in the mixed solutions to a value 120% of that in the original solution. This was performed with a stopped-flow fluorometer (SF.17MV, Applied Photophysics, Leatherhead, U.K.) with a measured dead time of 0.7 ms. […] Extravesicular carboxyfluorescein fluorescence was completely quenched using anti-fluorescein antibody (Harris et al., 1990, Am. J. Physiol. 259:F366-F371). Within the range of osmolalities used in these experiments, the vesicles acted as perfect osmometers, and relative volume (absolute volume divided by initial volume) was linearly related to relative fluorescence (absolute fluorescence divided by initial fluorescence). […]
# [1] = Stopped-flow osmotic water permeability of control liposomes; format: biochemical; conditions: mercurial reagent 1 mM
# Method: Purified AQP1 was stored overnight at 0° C. or frozen for several days at -80° C. prior to reconstitution. Reconstitution into proteoliposomes was carried out in a final volume of 1 ml containing 60-90 μg of purified AQP1 protein in chromatography buffer, 9 mg of bath-sonicated E. coli phospholipid, 1.25% (w/v) octyl glucoside, and 50 mM Tris-HCl (pH 7.5). The mixture was briefly blended on a vortex mixer and incubated for 20 minutes on ice. […] Protein and phospholipid were measured as described by Ambudkar & Maloney (J. Biol. Chem., 1986, 261:10079-10086).
# as §1, with “259:F366-F371).” for “259:F366-F371). Within the range of osmolalities used in these experiments, the vesicles acted as perfect osmometers, and relative volume (absolute volume divided by initial volume) was linearly related to relative fluorescence (absolute fluorescence divided by initial fluorescence).”
# human RBC = conditions: cited from earlier work
# CHIP28 water channel = target: T2, CHIP28 water channel; test: Urea permeability of CHIP28 proteoliposomes; format: biochemical; conditions: internal urea 374 mM, external urea 187 mM
# Source text: The general formula defining solute exit from a vesicle is
# Jurea =d(urea)/dt=Purea (SA)ΔC (2)
# where Jurea is urea flux, Purea is the permeability coefficient for urea, SA is the surface area of the vesicle, and ΔC is the difference in urea concentration between the inside and outside of the vesicle, which diminishes as the system reaches equilibrium. If
# Using parameters from the single-exponential curve fit to the data and the relationship between relative volume and relative fluorescence, equation 4 was solved for Purea using MathCAD.
# Exclusion of urea. To determine the selectivity of the CHIP28 water channel, CHIP28-containing liposomes were loaded with urea at a level similar to the measured Km for urea transport in RBCs and were abruptly mixed with solutions of identical osmolality containing half the urea concentration. Urea permeability was determined by monitoring the relative fluorescence of entrapped carboxyfluorescein during the urea efflux. Solutions inside and outside the vesicle were of equal osmolality but differed in the concentrations of permeant and impermeant solutes (Grossman et al., 1992, Am. J. Physiol., in press). Thus, internal urea concentration was 374 mM and external urea concentration was 187 mM with the remaining osmolality balanced by 187 mM sucrose. […]
molecule,measurement,setting,value
"O=S(=O)([O-])c1cc[c]([Hg][Cl])cc1 [pCMBS, p-chloromercuribenzene sulfonate]",Pf after mercurial treatment,"AQP1; 1 mM pCMBS, 25 minutes at 37° C.",0.009±0.005 cm/s
same,extent of inhibition of Pf at 5 and 10 minutes,"AQP1; 1 mM, 37° C.",partial
same,effect on the Pf of control liposomes,[1],Neither pCMBS nor HgCl2 had any effect
O=C(CCc1ccc(O)cc1)c1c(O)cc(O)cc1O [Phloretin],effect on urea flux,human RBC,inhibits urea flux
same,effect on water flux,human RBC,without altering water flux
"AQP1: Mr 28,000 transmembrane water channel protein of human erythrocytes, 269 amino acids (protein) ASEFKKKLFWRAVVAEFLATTLFVFISIGSALGFKYPVGNNQTAVQDNVKVSLAFGLSIATLAQSVGHISGAHLNPAVTLGLLLSCQISIFRALMYIIAQCVGAIVATAILSGITSSLTGNSLGRNDLADGVNSGQGLGIEIIGTLQLVLCVLATTDRRRRDLGGSAPLAIGLSVALGHLLAIDYTGCGINPARSFGSAVITHNFSNHWIFWVGPFIGGALAVLIYDFILAPRSSDLTDRVKVWTSGQVEEYDLDADDINSRVEMKPK",urea permeability versus control liposomes,CHIP28 water channel,did not augment urea permeability
